Source: patent US20250120975A1, “INTEGRIN INHIBITORS FOR TREATMENT OF PRIMARY SCLEROSING CHOLANGITIS” (Pliant Therapeutics, Inc., priority 2023, published 2025)

Experiments:
[1] = tested on: PCLivS from human liver tissue with biliary fibrosis (PSC, PBC); assay: Fibrotic gene expression (NanoString) in precision cut liver slices; format: cell-based; conditions: for % Inhibition of expression COL1A1 / % Inhibition of expression COL1A2: PCLivS from a single PSC liver
From the text: A human liver tissue explant was obtained from a PSC patient undergoing liver transplantation.
Slicing: To slice, 8-mm cores were punctured from the liver tissue and were stored in ice cold UW solution until slicing. A tissue core was glued onto the center of the plunger of the specimen syringe for slicing. The core was embedded in 2% low gelling temperature agarose made up in milliQ water. The thickness of the slice was adjusted to 400 μm and was sectioned into oxygenated KHB occurs. The slices were stored in cold UW solution on ice until all slices were cut.
Culture: The compounds were diluted to 1000× concentration in 100% DMSO. The compounds were diluted in a medium with a final concentration of 0.1% DMSO before transferring the slices and making a fresh medium for each 24-H medium change. Before being used for slice culture, all media was equilibrated in the incubator at culture conditions for 30 minutes. After all slices have been cut, all slices were transferred to wells prefilled with oxygenated, warmed, and equilibrated WEGG. The slices were incubated for 1 hour in the incubator at a temperature of 37° C., 5% CO2, 80% 02, 100% humidity on shaking platform set at 55 rpm. After this one-hour recovery, the slices were transferred to wells prefilled with oxygenated, warmed, and equilibrated WEGG with appropriate treatments. The slices were distributed into the treatment groups to account for inter-core variability. The slices were cultured at 37° C., 80% 02, 5% CO2, 100% humidity on shaking platform set at 55 rpm. The medium was changed after 24 hours.
The slices were removed from the well and rinsed in PBS. Excess liquid was removed. The slices were transferred to a microtube pooling all three slices from the same treatment into one tube. The pooled slices were snap frozen in liquid nitrogen and placed on dry ice until all samples were collected and then transferred to −80° C. for storage. For media collection, 140 μL of medium was pooled from each well within a treatment group and transferred to a 96-well Axygen plate. After sealing the plate, spin down occurred at 4000×g for 10 minutes at 4° C. Then, 130 μL aliquots were transferred into 3 new plates. The plates were sealed and stored at −80° C.
(S)-4-((2-methoxyethyl)(4-(5,6,7,8-tetrahydro-1,8-naphthyridin-2-yl)butyl)amino)-2-(quinazolin-4-ylamino)butanoic acid was tested at 100 nM, 1 μM, and 10 μM. OCA, an FXR agonist in clinical trials for PSC, was used at 250 nM and 2.5 μM reflecting Cmax levels observed in clinical trials. An ALK5 inhibitor (R268712) was used at 1 μM (400 times its IC50 per manufacturer) to target max inhibition of the ALK5 receptor.
Methods: Lysis buffer was made with one third RLT buffer in RNAse-free water and 2 mg/mL proteinase K. About 100-200 μL lysis buffer was added to each pool of 3 liver slices. Samples were incubated at 55° C. in the bead bath for 2 hours and 45 minutes, vortexing every 30 minute. Samples were centrifuged and the supernatant aliquoted in 15 μL aliquots into 96-well Axygen plates.
Methods: nCounter PlexSet was run according to standard protocol. Briefly, probe A and probe B were diluted with TE-tween to Working Probe Pools and mixed with hybridization buffer. This master mix was added to the A-H PlexSets and mixed. Each PlexSet was added across a row to a 96 well qPCR plate and proteinase K was added to a final concentration of 2 mg/mL. Lysate from samples was added to appropriate wells and mixed. The plate was sealed, spun, and placed in thermocycler at 67° C. for 16 hours. Hybridized samples were pooled down columns and 35 μL were loaded on a Sprint Cartridge and run on the nCounter Sprint. Data analysis was performed in nSolver using background thresholding based on negative controls, positive control normalization, reference sample normalization and normalization to housekeeping genes (GUSB, HPRT1, POLR1B, RPLP0, SRFS4, and/or UBC). […]

[2] = Phase 2a INTEGRIS-PSC: plasma concentrations (total and unbound); format: in vivo, human; conditions: 40, 80, 160 mg once daily, 12 weeks
From the text: The pharmacokinetic, pharmacodynamic, and pharmacogenomic assessments included the following: • a) PK: plasma samples for PK analysis (total and unbound(S)-4-((2-methoxyethyl)(4-(5,6,7,8-tetrahydro-1,8-naphthyridin-2-yl)butyl)amino)-2-(quinazolin-4-ylamino)butanoic acid concentrations) were obtained. • b) Biomarkers: plasma, serum (Parts 1, 2, and 3), and urine (Parts 1 and 2) samples were obtained. • c) Pharmacogenomics: a whole blood sample for deoxyribonucleic acid (DNA) isolation was collected before dosing on Day 1 from each subject in the study.
Blood samples for determination of plasma concentrations of (S)-4-((2-methoxyethyl)(4-(5,6,7,8-tetrahydro-1,8-naphthyridin-2-yl)butyl)amino)-2-(quinazolin-4-ylamino)butanoic acid are obtained before and at least 2 hours after administration of (S)-4-((2-methoxyethyl)(4-(5,6,7,8-tetrahydro-1,8-naphthyridin-2-yl)butyl)amino)-2-(quinazolin-4-ylamino)butanoic acid on Day 1, at Weeks 4 and 12(Parts 1, 2, and 3), Week 24 (Part 3 only), and at early termination (if possible, for any subject who prematurely discontinues from the study). The actual time dosing and the actual time of blood collection is recorded. […]

[3] = relative to inhibition with high dose ALK5 inhibitor, PCLivS from 10 livers

## COCCN(CCCCc1ccc2c(n1)NCCC2)CC[C@H](Nc1ncnc2ccccc12)C(=O)O [Bexotegrast, (S)-4-((2-methoxyethyl)(4-(5,6,7,8-tetrahydro-1,8-naphthyridin-2-yl)butyl)amino)-2-(quinazolin-4-ylamino)butanoic acid]
[1]; 100 nM, 2 days
  % Inhibition of expression COL1A1: −6%
  % Inhibition of expression COL1A2: −8%
[1]; 1 μM, 2 days
  % Inhibition of expression COL1A1: 27%
  % Inhibition of expression COL1A2: 9%
[1]; 10 μM, 2 days
  % Inhibition of expression COL1A1: 61%
  % Inhibition of expression COL1A2: 41%
[1]; PCLivS from human PSC liver tissue, 2 days
  dose dependence of COLIA1 and COLIA2 mRNA expression: reduced in a dose dependent manner
[1]; [3]
  inhibition of the TGF-β-driven COL3A1 expression: ≤ 41%
  inhibition of the TGF-β-driven COLIA1 expression: up to 28%
  inhibition of the TGF-β-driven TGF-81 expression: ≤ 48%
[1]; ≥1 μM, PCLivS from 10 livers with biliary fibrosis (6 PSC, 4 PBC), 2 days
  trend down in overall expression of COLIA1: 22%
[2]
  total and unbound plasma concentrations vs dose: increased with dose
